# Results published in patent publication US12491185B2, “Inhibitors of mPTP” (NRG Therapeutics Ltd, priority 2023, dated 2025).
# System: mPTP
# Test: mPTP activity (Ca2+ retention) assay in isolated rat liver mitochondria
# Type: biochemical
# Settings: examples tested by different contract research organisations, believed comparable
# Excerpt: Pharmacological inhibition or modulation of the mPTP can be measured in well characterised ‘Ca^2+ retention’ assays performed in isolated mitochondria. In vitro, isolated mitochondria rapidly sequester exogenous Ca^2+ until the intramitochondrial Ca^2+ concentration reaches the threshold for mPTP activation. Once the pore is activated, mitochondrial integrity is compromised and the stored Ca^2+ is released. The distribution of Ca^2+ between extra- and intra-mitochondrial compartments can be measured in real time with the use of membrane-impermeant Ca^2+ sensitive fluorescent dyes. Depending on the configuration of the assay, inhibition or modulation of the mPTP either delays the opening of the pore or increases the concentration of Ca^2+ required to induce mPTP opening.
# MPTP activity was measured in mitochondria freshly isolated from female Sprague Dawley (250 to 300 gram) rat livers using the following method. Cervical dislocation was performed on the rat. The liver was then perfused in-situ with −40 ml cold Dulbecco's Phosphate Buffered Saline (DPBS) prior to dissection and transferred into 30 ml Isolation Buffer (250 mM Sucrose, 10 mM KCl, 1 mM EGTA, 1 mM EDTA, 25 mM HEPES, adjusted to pH 7.5 with 1M NaOH). Each lobe of the liver was then removed from the buffer, minced using tweezers and a scalpel into −5 mm pieces then transferred into a 50 ml Potterton dounce homogenization tube on ice containing 30 ml ice-cold centrifugation buffer (300 mM Trehalose, 25 mM HEPES, 1 mM EGTA, 1 mM EDTA, 10 mM KCl, adjusted to pH 7.5 with 1M NaOH and supplemented with 0.1% bovine serum albumin (BSA) and complete protease inhibitor cocktail (one tablet of inhibitor per 50 mls of buffer). Homogenisation was carried out using a teflon pestle at 1800 rpm. The slurry was centrifuged at 800 g for 10 min at 4° C., then the supernatant centrifuged at 10,000 g for 10 min. The pellet was washed once with FLIPR assay buffer (75 mM Mannitol, 25 mM Sucrose, 5 mM Potassium Phosphate Monobasic, 20 mM Tris base, 100 mM KCl, 0.1% BSA adjusted to pH 7.4 with 5M HCl) centrifuged again, then resuspended in FLIPR assay buffer to a concentration of 8.8 mg/ml protein.
# Tested compounds (10 mM stock in DMSO) were serially diluted in DMSO in half log steps to generate 10 test concentrations (final concentrations in assay 30 μM to 1 nM). An intermediate dilution of 5 μl DMSO samples into 247 μl FLIPR assay buffer was carried out prior to transfer of 5 μl into duplicate wells of a 384 well polypropylene assay plate. Control wells were 0.5% (v/v) DMSO and 5 μM cyclosporin A.
# A stock mitochondria/Fluo5N assay solution was prepared in 5.6 ml FLIPR assay buffer (at RT) supplemented with succinate disodium salt (10 mM), rotenone (1 μM), Fluo5N pentapotassium salt (2 μM) and 1 ml mitochondria suspension, then transferred (15 μl) into the assay plate containing test compounds and incubated for 10 min at RT. Assay plates were processed for fluorescence detection on either a FLIPR Tetra (Molecular Devices) or CLARIOstar (BMG) plate reader. For kinetic fluorescence detection on the FLIPR, dye fluorescence was measured every 3 sec for a total of 10 min. After 12 sec, a 2.5 μl bolus of CaCl2 (75 μM) was added from a source plate containing 675 μM CaCl2 in FLIPR assay buffer. Alternatively, the 2.5 μl addition of CaCl2 was performed using a Viaflow 384, plates were incubated at RT for 10 min, and dye fluorescence measured after 10 min on the CLARIOstar plate reader. pIC50 values for tested compounds were calculated using the fluorescence value collected at the 10 min timepoint on either plate reader, with % inhibition calculated using the DMSO control and cyclosporin A values as 0 and 100% respectively.
row,mPTP Rat liver pIC50,SMILES
1,<4.52,"CC(C)(CNC(=O)c1cc(C(F)(F)F)n[nH]1)Cc1ccccc1 [Example 69, N-(2,2-dimethyl-3-phenylpropyl)-3-(trifluoromethyl)-1H-pyrazole-5-carboxamide]"
2,4.85,"Cn1nc(C(=O)NCC(CO)Cc2ccccc2)[nH]c1=O (stereo not drawn) [Example 70, N-(2-benzyl-3-hydroxypropyl)-1-methyl-5-oxo-4,5-dihydro-1H-1,2,4-triazole-3-carboxamide]"
3,<4.52,"Cn1nc(C(=O)NC(CCc2ccccc2)CC(F)(F)F)[nH]c1=O (stereo not drawn) [Example 71, 1-methyl-5-oxo-N-(1,1,1-trifluoro-5-phenylpentan-3-yl)-4,5-dihydro-1H-1,2,4-triazole-3-carboxamide]"
4,4.67,"CN(CC(C)(C)Cc1ccccc1)C(=O)c1nn(C)c(=O)[nH]1 [Example 72, N-(2,2-dimethyl-3-phenylpropyl)-N,1-dimethyl-5-oxo-4,5-dihydro-1H-1,2,4-triazole-3-carboxamide]"
5,5.84,"Cn1nc(C(=O)NCC2(Cc3ccc(F)cc3F)CCCCC2)[nH]c1=O [Example 73, N-((1-(2,4-Difluorobenzyl)cyclohexyl)methyl)-1-methyl-5-oxo-4,5-dihydro-1H-1,2,4-triazole-3-carboxamide]"
6,5.98,"CC[C@@H](Cc1ccccc1)[C@H](C)NC(=O)c1nn(C)c(=O)[nH]1 [Example 74, N-((2S,3S)-3-benzylpentan-2-yl)-1-methyl-5-oxo-4,5-dihydro-1H-1,2,4-triazole-3-carboxamide]"
7,5.77,"COc1cccc(CC2(CNC(=O)c3nn(C)c(=O)[nH]3)CCC2)c1 [Example 75, N-((1-(3-Methoxybenzyl)cyclobutyl)methyl)-1-methyl-5-oxo-4,5-dihydro-1H-1,2,4-triazole-3-carboxamide]"
8,5.65,"Cn1nc(C(=O)NCC2(Cc3ccccc3C(F)F)CCC2)[nH]c1=O [Example 76, N-((1-(2-(Difluoromethyl)benzyl)cyclobutyl)methyl)-1-methyl-5-oxo-4,5-dihydro-1H-1,2,4-triazole-3-carboxamide]"
9,4.78,"Cn1nc(C(=O)NCC2(Cc3cccc(C4CC4)c3)CCC2)[nH]c1=O [Example 77, N-((1-(3-Cyclopropylbenzyl)cyclobutyl)methyl)-1-methyl-5-oxo-4,5-dihydro-1H-1,2,4-triazole-3-carboxamide]"
10,5.27,"CCc1ccccc1CC1(CNC(=O)c2nn(C)c(=O)[nH]2)CCC1 [Example 82, N-((1-(2-Ethylbenzyl)cyclobutyl)methyl)-1-methyl-5-oxo-4,5-dihydro-1H-1,2,4-triazole-3-carboxamide]"
11,5.83,"Cn1nc(C(=O)NCC2(Cc3cccc(Cl)c3F)CCC2)[nH]c1=O [Example 85, N-((1-(3-Chloro-2-fluorobenzyl)cyclobutyl)methyl)-1-methyl-5-oxo-4,5-dihydro-1H-1,2,4-triazole-3-carboxamide]"
12,5.86,"Cc1cc(F)ccc1CC1(CNC(=O)c2nn(C)c(=O)[nH]2)CCC1 [Example 86, N-((1-(4-Fluoro-2-methylbenzyl)cyclobutyl)methyl)-1-methyl-5-oxo-4,5-dihydro-1H-1,2,4-triazole-3-carboxamide]"
13,5.57,"Cn1nc(C(=O)NCC2(Cc3ccc(F)cc3C(F)(F)F)CCC2)[nH]c1=O [Example 87, N-((1-(4-Fluoro-2-(trifluoromethyl)benzyl)cyclobutyl)methyl)-1-methyl-5-oxo-4,5-dihydro-1H-1,2,4-triazole-3-carboxamide]"
14,5.28,"O=C(NCC1(Cc2ccccc2)CCC1)c1noc(=O)[nH]1 [Example 88, N-((1-Benzylcyclobutyl)methyl)-5-oxo-4,5-dihydro-1,2,4-oxadiazole-3-carboxamide]"
15,6.05,"Cc1cccc(CC2(CNC(=O)c3nn(C)c(=O)[nH]3)CCC2)c1 [Example 89, 1-Methyl-N-((1-(3-methylbenzyl)cyclobutyl)methyl)-5-oxo-4,5-dihydro-1H-1,2,4-triazole-3-carboxamide]"
16,5.61,"Cn1nc(C(=O)NCC2(Cc3ccc(Cl)cc3F)CCC2)[nH]c1=O [Example 90, N-((1-(4-Chloro-2-fluorobenzyl)cyclobutyl)methyl)-1-methyl-5-oxo-4,5-dihydro-1H-1,2,4-triazole-3-carboxamide]"

# More lines, now with the values behind:
row,SMILES,mPTP Rat liver pIC50
1,"CC(NC(=O)c1nn(C)c(=O)[nH]1)C(C)(C)Cc1ccccc1 (single isomer, unassigned) [Example 39A, N-(3,3-dimethyl-4-phenylbutan-2-yl)-1-methyl-5-oxo-4,5-dihydro-1H-1,2,4-triazole-3-carboxamide]",<4.57
2,"CC(C)[C@@H](CNC(=O)c1nn(C)c(=O)[nH]1)Cc1ccccc1 (single isomer, unassigned) [Example 46A]",4.71
3,"O=C(NCC1(Cc2ccccc2)CCC1)c1ccnc(=O)[nH]1 [Example 6, N-((1-benzylcyclobutyl)methyl)-2-oxo-2,3-dihydropyrimidine-4-carboxamide]",5.13
4,"CC(C)C(CNC(=O)c1nn(C)c(=O)[nH]1)Cc1ccccc1 (stereo not drawn) [Example 45, N-(2-benzyl-3-methylbutyl)-1-methyl-5-oxo-4,5-dihydro-1H-1,2,4-triazole-3-carboxamide]",6.50
5,"CCCC(CNC(=O)c1nn(C)c(=O)[nH]1)Cc1ccccc1 (stereo not drawn) [Example 55, N-(2-benzylpentyl)-1-methyl-5-oxo-4,5-dihydro-1H-1,2,4-triazole-3-carboxamide]",5.44
6,Cn1nc(C(=O)NCC2(C)Cc3ccccc3C2)[nH]c1=O [Example 58],5.03
7,Cn1nc(C(=O)NCCC(C)(C)c2ccccc2)[nH]c1=O [Example 59],5.06
8,Cn1nc(C(=O)NCC2CCc3ccccc3C2)[nH]c1=O (stereo not drawn) [Example 60],5.10
9,"COc1ccccc1CC1(CNC(=O)c2nn(C)c(=O)[nH]2)CCC1 [Example 61, N-((1-(2-methoxybenzyl)cyclobutyl)methyl)-1-methyl-5-oxo-4,5-dihydro-1H-1,2,4-triazole-3-carboxamide]",4.99
10,"Cn1cc(C(=O)NCC2(Cc3ccccc3)CCC2)[nH]c1=O [Example 63, N-((1-benzylcyclobutyl)methyl)-1-methyl-2-oxo-2,3-dihydro-1H-imidazole-4-carboxamide]",4.65
11,"O=C1COCC(C(=O)NCC2(Cc3ccccc3)CCC2)N1 (stereo not drawn) [Example 65, N-((1-benzylcyclobutyl)methyl)-5-oxomorpholine-3-carboxamide]",<4.52
12,"O=C(NCC1(Cc2ccccc2)CCC1)c1nc2ccccc2c(=O)[nH]1 [Example 66, N-((1-benzylcyclobutyl)methyl)-4-oxo-3,4-dihydro-quinazoline-2-carboxamide]",<4.52
13,"Cn1nc(C(=O)NCC(C)(C)Cc2ccccc2)ccc1=O [Example 67, N-(2,2-dimethyl-3-phenylpropyl)-1-methyl-6-oxo-1,6-dihydro-pyridazine-3-carboxamide]",<4.52
14,"Cn1c(=O)[nH]cc(C(=O)NCC(C)(C)Cc2ccccc2)c1=O [Example 68, N-(2,2-dimethyl-3-phenylpropyl)-3-methyl-2,4-dioxo-1,2,3,4-tetrahydro-pyrimidine-5-carboxamide]",<4.52
